Data on 3 molecules can be found in ChEMBL document CHEMBL1143760, “Stereoselective synthesis of beta-1-C-substituted 1,4-dideoxy-1,4-imino-D-galactitols and evaluation as UDP-galactopyranose mutase inhibitors” (Bioorg Med Chem, 2007).

The test concerns the target T1, UDP-galactopyranose mutase (Escherichia coli K-12) (UniProt P37747).
T1 sequence (whole entry): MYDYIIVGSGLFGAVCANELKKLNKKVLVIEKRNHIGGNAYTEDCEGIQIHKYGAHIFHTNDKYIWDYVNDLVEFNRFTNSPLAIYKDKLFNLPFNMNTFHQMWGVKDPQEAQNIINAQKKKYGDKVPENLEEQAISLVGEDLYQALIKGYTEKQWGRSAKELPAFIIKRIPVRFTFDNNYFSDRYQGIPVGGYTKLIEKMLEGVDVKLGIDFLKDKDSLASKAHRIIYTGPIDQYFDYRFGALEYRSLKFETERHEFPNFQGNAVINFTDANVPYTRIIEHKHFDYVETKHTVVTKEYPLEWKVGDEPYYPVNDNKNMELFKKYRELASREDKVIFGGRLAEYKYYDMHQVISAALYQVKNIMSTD
The test is described as follows: Inhibition of Escherichia coli UDP galactopyranose mutase at 25 mM.
Regarding `O=C1CC[C@H]2[C@H](O)[C@@H](O)[C@H]([C@H](O)CO)N12`, the inhibition was less than 50%.
For the molecule `OC[C@@H](O)[C@H]1[C@H](O)[C@@H](O)[C@@H]2CCCN12`, the inhibition is less than 50%.
In the case of `CCOC(=O)CC[C@@H]1N[C@@H]([C@H](O)CO)[C@H](O)[C@H]1O`, the inhibition was less than 50%.

As a reminder, the inhibition is the relative decrease from the control value, in per cent. A low value points to a weak effect.
